Data on twelve compounds can be found in ChEMBL document CHEMBL1949614, “Advent of Imidazo[1,2-a]pyridine-3-carboxamides with Potent Multi- and Extended Drug Resistant Antituberculosis Activity” (ACS Med Chem Lett, 2011).

Data set [1] deals with Mycobacteroides chelonae. As to the kind of experiment: Antimicrobial activity against Mycobacterium chelonae by microbroth dilution assay. In kind it is functional. A general note: In broth dilution the organism is exposed to a series of concentrations in liquid medium.
Data set [2] relates to Mycobacterium marinum. Put plainly: Antimicrobial activity against Mycobacterium marinum by microbroth dilution assay. It counts as functional.
The test system of data set [3] is Mycobacterium tuberculosis. Put plainly: microbe, parasite or virus in culture. Conditions: H37Rv.
Description: Antimicrobial activity against Mycobacterium tuberculosis H37Rv by microbroth dilution assay
In data set [4] the test system is Vero. As to the kind of experiment: Cytotoxicity against african green monkey Vero cells after 72 hrs. It counts as cell-based. Conditions: Chlorocebus sabaeus.
Data set [5] deals with Mycobacterium kansasii. Put plainly: Antimicrobial activity against Mycobacterium kansasii by microbroth dilution assay. In kind it is functional.
For data set [6], the system named is Mycobacterium tuberculosis. Put plainly: microbe, parasite or virus in culture. The following applies: H37Rv ATCC 27294, 168 h.
Description: Antituberculosis activity against Mycobacterium tuberculosis H37Rv ATCC 27294 in GAST medium after 1 week by microplate alamar blue assay
Data set [7] concerns Mycobacterium avium. Put plainly: Antimicrobial activity against Mycobacterium avium by microbroth dilution assay. In kind it is functional.
Data set [8] has as its system Mycobacteroides abscessus. As to the kind of experiment: Antimicrobial activity against Mycobacterium abscessus by microbroth dilution assay. In kind it is functional.
For data set [9], the system named is Mycobacterium tuberculosis. Put plainly: microbe, parasite or virus in culture. Conditions: H37Rv ATCC 27294, 168 h. This is another data set of the same source.
Description: Antituberculosis activity against Mycobacterium tuberculosis H37Rv ATCC 27294 in GAS medium after 1 week by microplate alamar blue assay
In data set [10] the test system is Mycobacterium tuberculosis. Put plainly: microbe, parasite or virus in culture. The following applies: H37Rv ATCC 27294, 168 h. This is another data set of the same source.
Description: Antituberculosis activity against Mycobacterium tuberculosis H37Rv ATCC 27294 in 7H12 medium after 1 week by microplate alamar blue assay
Data set [11] deals with Mycolicibacterium smegmatis. Put plainly: Antimicrobial activity against Mycobacterium smegmatis by microbroth dilution assay. In kind it is functional.
The test system of data set [12] is Mycobacterium tuberculosis. Put plainly: Antitubercular activity against non-replicating Mycobacterium tuberculosis H37Rv expressing vibrio harveyii luciferase gene incubated 10 days under anaerobic condition measured after 28 hrs of recovery in aerobic condition by luciferase based low oxygen recovery assay.
Data set [13] concerns Staphylococcus aureus. As to the kind of experiment: Antibacterial activity against Staphylococcus aureus. In kind it is functional.
In data set [14] the test system is Escherichia coli. As to the kind of experiment: Antimicrobial activity against Escherichia coli. In kind it is functional.
For data set [15], the system named is Candida albicans. Put plainly: Antifungal activity against Candida albicans. In kind it is functional.
A short description of data set [16]: Cmax in Sprague-Dawley rat at 10 mg/kg, po. Set-up: dose 10 mg/kg, route oral. Conditions: in vivo. In kind it is ADME, organism-based.
Data set [17] concerns Rattus norvegicus. Put plainly: Oral bioavailability in Sprague-Dawley rat at 10 mg/kg. It counts as ADME, organism-based. The following applies: in vivo.
A short description of data set [18]: Half life in rat liver microsomes at 1 mM by LC/MS analysis. It counts as ADME, Microsome. Background: Microsomes from liver hold many membrane-bound enzymes, among them those of drug oxidation.
The nature of data set [19]: Aqueous solubility of the compound in PBS buffer at pH 7.4. In kind it is physicochemical.
The test system of data set [20] is Mycobacterium tuberculosis. Put plainly: Antitubercular activity against Mycobacterium tuberculosis assessed as up-regulation of cytochrome bd oxidase at 0.1 to 10 ug/mL after 6 hrs. In kind it is functional, organism-based.
Data set [21] in a line: Clearance in Sprague-Dawley rat at 1 mg/kg, iv. In kind it is ADME, organism-based. Set-up: dose 1 mg/kg, route intravenous. The following applies: in vivo.
Data set [22] is described as follows: Half life in Sprague-Dawley rat at 1 mg/kg, iv. Set-up: dose 1 mg/kg, route intravenous. It counts as ADME, organism-based. Conditions: in vivo.
For data set [23], the system named is Mycobacterium tuberculosis. Put plainly: Antitubercular activity against Mycobacterium tuberculosis assessed as up-regulation of phosphoenolpyruvate carboxykinase at 0.1 to 10 ug/mL after 6 hrs. It counts as functional, organism-based.
Data set [24] can be described thus: in vivo. The following applies: Sprague-Dawley, rat, po, 10 mg/kg.
Data set [25] is described as follows: Drug metabolism in human liver microsomes at 1 mM after 30 mins by LC/MS analysis. The following applies: read-out: Drug metabolism. In kind it is ADME, Microsome.
The nature of data set [26]: Drug metabolism in rat liver microsomes at 1 mM after 30 mins by LC/MS analysis. In kind it is ADME, Microsome. Conditions: read-out: Drug metabolism.

In brackets after ≈: the same amount, converted by molar mass. Activity calls are given as the source filed them. A value given as a limit tells only on which side of the number the result lay.

The IC50 is the concentration that inhibits the measured activity by half. In the case of `CO[C@H]1/C=C/O[C@@]2(C)Oc3c(C)c(O)c4c(O)c(c(/C=N/N5CCN(C)CC5)c(O)c4c3C2=O)NC(=O)/C(C)=C\C=C\[C@H](C)[C@H](O)[C@@H](C)[C@@H](O)[C@@H](C)[C@H](OC(C)=O)[C@@H]1C` [RIFAMPIN], the MIC90 in [1] was 150 µM (≈ 123 µg/mL); in data set [2] it was less than 0.78 µM; in data set [3] it was 0.05 µM (≈ 0.0411 µg/mL); in data set [5] it was less than 0.78 µM; in data set [6], 0.2 µM (≈ 0.165 µg/mL); in data set [7], less than 0.78 µM. Further, the MIC90 was determined as 162 µM (≈ 134 µg/mL) in data set [8], 0.8 µM (≈ 0.658 µg/mL) in [9], 0.07 µM (≈ 0.0576 µg/mL) in [10] and 162 µM (≈ 134 µg/mL) in data set [11]. The IC50 in data set [4] was 113 µM.

The MIC is the lowest concentration found to suppress growth. As for `COc1cccc(CNC(=O)c2c(C)nc3ncc(C)cn23)c1`, the MIC90 in data set [1] was more than 50 µM; in data set [2], more than 50 µM; in data set [3] it was 5.94 µM (≈ 1.84 µg/mL); in data set [5], 12 µM (≈ 3.72 µg/mL); in data set [6], 0.1 µM (≈ 0.031 µg/mL); in [7], 12 µM (≈ 3.72 µg/mL). The MIC90 in data set [12] is more than 10 µM; in [8] it was more than 50 µM; in data set [10], 0.48 µM (≈ 0.149 µg/mL); in [11], more than 50 µM. This compound showed an IC50 in [4] of 88.7 µM. Further, the MIC in [13], in data set [14] and in [15] was more than 128 µM in each case.

In data set [4], `Cc1ccc(CNC(=O)c2c(C)nc3cc(C)ccn23)cc1` returned an IC50 of 54.7 µM. The MIC90 in data set [6] came to 0.8 µM (≈ 0.235 µg/mL); in [9] it was 0.51 µM (≈ 0.15 µg/mL).

As for `O=[N+]([O-])c1cn2c(n1)OC[C@@H](OCc1ccc(OC(F)(F)F)cc1)C2` [PRETOMANID], the IC50 in data set [4] was more than 128 µM. Besides, the MIC90 in data set [6] came to 0.21 µM (≈ 0.0754 µg/mL); in [12], 4.9 µM (≈ 1.76 µg/mL); in data set [9], 0.31 µM (≈ 0.111 µg/mL); in data set [10] it was 0.47 µM (≈ 0.169 µg/mL).

In general, Cmax refers to the peak of the concentration-time curve. Broadly, the half-life is the time needed for the level to fall by half in the phase considered. One may read the solubility as the dissolved amount per volume that the medium holds. One may read the clearance as a measure of how efficiently the substance is removed, as volume per time. Broadly, the Tmax is the time at which the peak concentration occurs. For `Cc1ccn2c(C(=O)NCc3ccccc3)c(C)nc2c1`, the Cmax in data set [16] stood at 3010 ng/mL. In addition, the MIC90 in data set [1] was more than 50 µM; in data set [2], more than 50 µM; in data set [3], 1.07 µM (≈ 0.299 µg/mL); in data set [5], 1.32 µM (≈ 0.369 µg/mL); in data set [6], 0.69 µM (≈ 0.193 µg/mL); in data set [7], 1.32 µM (≈ 0.369 µg/mL). The MIC90 in data set [12] was 53.6 µM (≈ 15 µg/mL); in data set [8] it was more than 50 µM; in data set [9], 0.37 µM (≈ 0.103 µg/mL); in data set [10], 1.9 µM (≈ 0.531 µg/mL); in [11] it was more than 50 µM. In data set [17], the F worked out at 76%. Further, the IC50 in data set [4] was more than 128 µM. Besides, the half-life was 19 min in data set [18] and 21 min in [22]. Besides, the minimum inhibitory concentration (MIC) in data set [13], in data set [14] and in data set [15] was more than 128 µM each time. For the same compound, in [19], the solubility came out at 181 µM (≈ 50.6 µg/mL). The result in data set [20] and in data set [23] was Active. Moreover, the clearance in [21] is 91 mL/min/kg. Further, in [24], the Tmax amounted to 15 min. Further, the metabolised at 0.5 h in data set [25] was determined as 59%; in data set [26] it was 71%.

As to `COc1ccccc1CNC(=O)c1c(C)nc2cc(C)ccn12`, the IC50 in data set [4] was more than 128 µM. The results for the MIC90 in data set [6] and in data set [9] were 1.9 µM (≈ 0.588 µg/mL) and 2.8 µM (≈ 0.866 µg/mL), respectively.

In turn, `COc1cccc(CNC(=O)c2c(C)nc3cc(C)ccn23)c1` displayed a Cmax in [16] of 3140 ng/mL. For the same compound, in data set [4], the IC50 is more than 128 µM. Besides, the MIC90 in data set [6] worked out at 1 µM (≈ 0.309 µg/mL); in data set [12], 31.4 µM (≈ 9.71 µg/mL); in data set [9], 1.2 µM (≈ 0.371 µg/mL); in [10] it was 5.9 µM (≈ 1.83 µg/mL). The MIC in [13], in [14] and in data set [15] was more than 128 µM throughout. In data set [19], this compound showed a solubility of 149 µM (≈ 46.1 µg/mL). Further, in data set [21], the clearance was determined as 43 mL/min/kg. Moreover, the half-life in data set [22] was 19.8 min. The Tmax in data set [24] stood at 15 min. Besides, the metabolised at 0.5 h in data set [25] is 47%; in data set [26] it was 80%.

`Cc1ccn2c(C(=O)NCc3ccc(Cl)cc3)c(C)nc2c1`: the Cmax in [16] worked out at 2000 ng/mL. For the same compound, the F in data set [17] is on record as 49%. Further, in data set [4], the IC50 was more than 128 µM. The MIC90 in data set [6] was determined as 0.51 µM (≈ 0.16 µg/mL); in data set [12], 28 µM (≈ 8.79 µg/mL); in [9], 0.5 µM (≈ 0.157 µg/mL); in data set [10], 1.94 µM (≈ 0.609 µg/mL). Further, the MIC in data set [13], in [14] and in data set [15] was more than 128 µM throughout. The same compound displayed a solubility in data set [19] of 25 µM (≈ 7.84 µg/mL). In addition, in data set [21], the clearance worked out at 51 mL/min/kg. Besides, the half-life in [22] is 24 min. Besides, the Tmax in [24] worked out at 18.6 min. The metabolised at 0.5 h in data set [25] worked out at 82%; in data set [26], 79%.

In turn, `Cc1ccn2c(C(=O)Nc3ccccc3)c(C)nc2c1` showed an MIC90 in data set [6] of more than 128 µM.

`COc1ccc(CNC(=O)c2c(C)nc3cc(C)ccn23)cc1` yielded a Cmax in data set [16] of 5740 ng/mL. Further, the F in [17] turned out to be 50%. In data set [4], this compound yielded an IC50 of more than 128 µM. Besides, the MIC90 in data set [6] worked out at 0.5 µM (≈ 0.155 µg/mL); in data set [12], 10.5 µM (≈ 3.25 µg/mL); in data set [9], 0.51 µM (≈ 0.158 µg/mL); in data set [10], 1.35 µM (≈ 0.418 µg/mL). The MIC in data set [13], in data set [14] and in [15] was more than 128 µM in each case. In addition, in [19], the solubility was 148 µM (≈ 45.8 µg/mL). In addition, in data set [21], the clearance came to 28 mL/min/kg. Also, the half-life in [22] is 16.8 min. The Tmax in data set [24] is 15 min. In addition, the metabolised at 0.5 h in data set [25] is 30%; in [26], 69%.

Consider `Cc1ccn2c(C(=O)NCc3ccc(Cl)c(Cl)c3)c(C)nc2c1`, for which the MIC90 in data set [6] is 14.4 µM (≈ 5.01 µg/mL); in data set [9], 9.3 µM (≈ 3.24 µg/mL).

In data set [4], `Cc1ccn2c(C(=O)NCc3cccc(F)c3)c(C)nc2c1` registered a concentration for half-maximal inhibition (IC50) of more than 128 µM. Further, the MIC90 in data set [6] turned out to be 0.38 µM (≈ 0.113 µg/mL); in [12], 40.1 µM (≈ 11.9 µg/mL); in data set [9], 0.29 µM (≈ 0.0862 µg/mL); in [10] it was 1.98 µM (≈ 0.589 µg/mL). The MIC in data set [13], in data set [14] and in [15] was more than 128 µM in each case.
